The record followed here is paper PMC5908784, “Extracellular loops 2 and 3 of the calcitonin receptor selectively modify agonist binding and efficacy” (Biochemical Pharmacology, 2018).

Molecules are shown by their SMILES. Positions count from the first letter of the chain named.

Assay in all cases: cAMP accumulation
Type in all cases: cell-based
What all share (details): cAMP maximal response, mean ± S.E.M., SEM
A general note: cAMP levels reflect the balance of adenylyl cyclase and phosphodiesterase activity.

One assay addresses T1, hCTR D373A (Homo sapiens, UniProt P30988, D373A).
T1 construct: c-Myc (N); expressed in transfected cells
T1 sequence (P30988 25-474 D373A): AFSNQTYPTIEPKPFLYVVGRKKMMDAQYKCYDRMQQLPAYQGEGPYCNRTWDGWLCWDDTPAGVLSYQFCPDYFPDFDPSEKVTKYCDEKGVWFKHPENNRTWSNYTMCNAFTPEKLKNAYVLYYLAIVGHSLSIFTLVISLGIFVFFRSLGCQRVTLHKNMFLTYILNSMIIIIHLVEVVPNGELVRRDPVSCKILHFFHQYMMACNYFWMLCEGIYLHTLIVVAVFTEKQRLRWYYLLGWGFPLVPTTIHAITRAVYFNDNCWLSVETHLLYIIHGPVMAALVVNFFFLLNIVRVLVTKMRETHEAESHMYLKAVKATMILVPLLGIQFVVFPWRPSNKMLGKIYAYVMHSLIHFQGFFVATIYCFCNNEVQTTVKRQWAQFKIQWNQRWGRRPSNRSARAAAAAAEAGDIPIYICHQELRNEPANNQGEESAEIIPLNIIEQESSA
In a few lines: (§1)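 Concentration-response curves, fitted to a 3-parameter logistic equation, gave EC50 and Emax; these reflect functional affinity, efficacy and stimulus-response coupling combined. Stimulation lasted 30 min with IBMX, and data were scaled to the 100 μM forskolin response.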

The next assay concerns the target T2, hCTR F285A (Homo sapiens, UniProt P30988, F285A).
T2 construct: expressed in transfected cells
T2 sequence (P30988 25-474 F285A): T1 sequence (P30988 25-474 D373A) with F261A, A349D
The method, boiled down: as §1

For the next assay, the target named is T3, hCTR V293A (Homo sapiens, UniProt P30988, V293A).
T3 construct: c-Myc (N); expressed in transfected cells
T3 sequence (P30988 25-474 V293A): T1 sequence (P30988 25-474 D373A) with V269A, A349D
In a few lines:
as §1

The target in another assay is T4, hCTR L291A (Homo sapiens, UniProt P30988, L291A).
T4 construct: expressed in transfected cells
T4 sequence (P30988 25-474 L291A): T1 sequence (P30988 25-474 D373A) with L267A, A349D
In a few lines:
as §1

For a further assay, the target named is T5, hCTR E294A (Homo sapiens, UniProt P30988, E294A).
T5 construct: c-Myc (N); expressed in transfected cells
T5 sequence (P30988 25-474 E294A): T1 sequence (P30988 25-474 D373A) with E270A, A349D
The method, boiled down:
as §1

As a reminder, the Emax is the size of the effect at its maximum, as opposed to the concentration needed. Take `CC[C@H](C)[C@H](NC(=O)[C@H](C)NC(=O)[C@@H](NC(=O)[C@H](CCC(N)=O)NC(=O)[C@@H]1CCCN1C(=O)[C@H](Cc1ccccc1)NC(=O)[C@@H](NC(=O)[C@H](Cc1c[nH]cn1)NC(=O)[C@H](Cc1ccccc1)NC(=O)[C@H](CCCCN)NC(=O)[C@H](CC(N)=O)NC(=O)[C@H](Cc1ccccc1)NC(=O)[C@H](CC(=O)O)NC(=O)[C@H](CCC(N)=O)NC(=O)[C@@H](NC(=O)[C@H](Cc1ccc(O)cc1)NC(=O)[C@@H](NC(=O)CNC(=O)[C@H](CC(C)C)NC(=O)[C@H](CCSC)NC(=O)[C@@H]1CSSC[C@H](N)C(=O)NCC(=O)N[C@@H](CC(N)=O)C(=O)N[C@@H](CC(C)C)C(=O)N[C@@H](CO)C(=O)N[C@@H]([C@@H](C)O)C(=O)N1)[C@@H](C)O)[C@@H](C)O)[C@@H](C)O)[C@@H](C)O)C(=O)NCC(=O)N[C@H](C(=O)NCC(=O)N[C@@H](C)C(=O)N1CCC[C@H]1C(N)=O)C(C)C` [hCT]: the Emax worked out at 142 ± 8% at hCTR D373A; 105 ± 11% on hCTR F285A; 123 ± 8% at hCTR V293A; 131 ± 5% at hCTR L291A; 105 ± 5% on hCTR E294A.
